“And” between values parts separate entries of the source, which are not always exact repeats. Equal values may be shown once.

As usually defined, the % Inhibition is the relative decrease from the control value, in per cent.

The assay concerns sperm-egg fusion. The experiment in a line: sperm-egg fusion inhibition assay. Format: cell-based, guinea pig. More on the design: inhibits sperm-egg fusion / % Inhibition: concentration or dose not given beside the values. Here is the method:
The fusion inhibition assay was carried out as follows. Eggs were collected from guinea pig ovaries. The eggs were incubated in tissue culture medium overnight. The zona pellucida was removed with a mixture of proteases. The zona pellucida free eggs were incubated in culture media with peptide at a specified concentration for 30 minutes.
Sperm collected from the epididymis of male guinea pigs was capacitated by incubation and acrosome reacted as described by Fleming and Yanagimachi (Gamete Res. 4: 253-273 (1981)) and added to the eggs and incubated for 15 minutes. The eggs were then transferred to a sperm free culture medium and incubated for an additional 1 hour and 45 minutes. The eggs were then fixed and stained as described by Primakoff et al. (J. Cell. Biol. 104: 141 (1987)). The total number of swollen sperm heads were then counted. Swollen sperm heads are an indication that the sperm and egg have fused.
On the basis of these observations, several indices are calculated. The fertilization index (F.I.) is determined by dividing the total number of swollen heads by the total number of eggs. The fertilization rate (F.R.) is the percentage of eggs fertilized. The percent inhibition is determined by dividing the fertilization index of the experimental peptide by the fertilization index of the control peptide.

Take CSTDEC: the F.R. (Table 4, TDE peptides compared with no peptide control) was 8% and 11%. The “% Inhibition” value reads like this: (Table 4, relative to F.I. of no peptide control of the same experiment) 89% and 95%; (Table 5, relative to F.I. of control peptide GRGES of the same experiment) 90% and 98%. For the same substance, for the setting “compared to no peptide or control peptide”, the “inhibition of sperm-egg fusion (in words)” value is “strongly inhibited”. Under “when the fertilization index is near the normal level of 1 sperm per egg, compared with no peptide (Table 4)”, the inhibits sperm-egg fusion is listed as 89%.

Values taken from EP0646015B1, “CONTRACEPTIVE VACCINE” (THE UNIVERSITY OF CONNECTICUT, priority 1992, dated 1993).
